Tests used:
[1] = system: PANC-1 (ATCC No. CRL-1469) cells
Description: After treatment for a period of 18-24 hours, the number of survival cells was counted with a Cell Counting Kit (Dojindo).

Solubility in water = type: physicochemical
[2] = system: pancreas cancer cell strain PANC-1; settings: Non-Patent Document 1; cited from earlier work
Miapaca-2 cells = assay: Tumor size in model transplanted pancreas cancer, existing anticancer agents combined with Burdock Fruit extract (Test Example 6); type: in vivo, mice; settings: anticancer agent combined with GBS-01 750 mg/kg oral 5 days a week; about 4 weeks
Description: Miapaca-2 cells (5×10^6 cells/200 μl ) were subcutaneously transplanted under the armpit of BALB/cAJcl-nu/nu mice (CLEA Japan, Inc.), and after feeding of about 2 weeks those that grew to the size of about 100 mm^3 or about 600 mm^3 were selected and employed as the subject mice to be treated.
Thus prepared transplanted mice were divided into the respective groups, that is, an untreated group, a group administered an existing anticancer agent as a component having a variety of anticancer activities, a Burdock Fruit extract administered group and a group of combined administration of these agents, and the treatment was continued over about 4 weeks for 5 to 6 species of tumors in the respective groups. The existing anticancer agents used include Carboplatin (CBDCA, Bristol-Myers, peritoneal administration, 60 mg/kg once a week), Doxorubicin (Kyowa Hakko, peritoneal administration, 10 mg/kg twice a week), Oxaliplatin (Yakult, peritoneal administration, 8 mg/kg once a week), Everolimus (Novartis, oral administration, 5 mg/kg 5 times a week) , Bortezomib (Janssen Pharma, peritoneal administration, 1 mg/kg twice a week), Irinotecan (Yakult, peritoneal administration, 25 mg/kg twice a week), and Hydroxychloroquine (Sanofi, peritoneal administration, 100 mg/kg 5 times a week) . As for Burdock Fruit extract, 10% arctigenin-containing Burdock Fruit extract (Kracie Co., GBS-01) was used and orally administered at a dose of 750 mg/kg 5 days a week.
At intervals of 3 to 4 days, the mouse was fixed and the length (L), the minor axis (W) and the height (H) of tumor were measured by a precision digital vernier micrometer, from which the tumor size was calculated using the formula: Tumor size=4/3*pi*L/2*H/2*W/2(pi=3.14)
When the height cannot be measured, the formula: Tumor size=4/3*pi*L/2*(W/2)^2 was used for convenience.

Row | SMILES | Magnification of LD50 decrease [1] | tumor size reduced compared to a single preparation of Burdock Fruit extract (Miapaca-2 cells) [times] | tumor size reduced compared to a single preparation of the anticancer agent (Miapaca-2 cells) | further results
1 | Cc1cn([C@H]2C[C@H](N=[N+]=[N-])[C@@H](CO)O2)c(=O)[nH]c1=O [AZT] | 4.67 | – | – | –
2 | Nc1nc(OCc2ccccc2)c2nc[nH]c2n1 [Benzylguanine] | 8.24 | – | – | –
3 | C[C@]12CC[C@H](OS(=O)(=O)O)CC1=CC[C@@H]1[C@@H]2CC[C@]2(C)C(=O)CC[C@@H]12 [DHEA-S] | 3.13 | – | – | –
4 | c1cc(-c2cnn3cc(-c4ccc(OCCN5CCCCC5)cc4)cnc23)ccn1 [Dorsomorphin] | 6.14 | – | – | –
5 | CNC(=N)NCCC[C@H](N)C(=O)O [L-NMMA] | 1.72 | – | – | –
6 | CC(C)[C@H](CO)Nc1nc(Nc2cccc(Cl)c2)c2ncn(C(C)C)c2n1 [Purvalanol A] | 1.71 | – | – | –
7 | CCCCOc1cc(CC2CNC(=O)N2)ccc1OC (centres unmarked) [Ro-20-1724] | 1.66 | – | – | –
8 | COc1cc(C[C@H]2C(=O)OC[C@@H]2Cc2ccc(OC)c(OC)c2)ccc1O [arctigenin] | – | – | – | solubility in water (Solubility in water): slightly soluble; removal of the viability of tumor cells in a low nutritional state [2]: effective
9 | COc1ccc(C[C@H]2COC(=O)[C@@H]2Cc2ccc(O[C@@H]3O[C@H](CO)[C@@H](O)[C@H](O)[C@H]3O)c(OC)c2)cc1OC [arctiin] | – | – | – | solubility in water (Solubility in water): slightly soluble
10 | CC(C)C[C@H](NC(=O)[C@H](Cc1ccccc1)NC(=O)c1cnccn1)B(O)O [bortezomib, Bortezomib] | – | 1.8 | 1.4 times | –
11 | COc1cccc2c1C(=O)c1c(O)c3c(c(O)c1C2=O)C[C@@](O)(C(=O)CO)C[C@@H]3O[C@H]1C[C@H](N)[C@H](O)[C@H](C)O1 [doxorubicin, Doxorubicin] | – | 1.4 | about 1.5 times | –
12 | CO[C@H]1C[C@@H]2CC[C@@H](C)[C@@](O)(O2)C(=O)C(=O)N2CCCC[C@H]2C(=O)O[C@H]([C@H](C)C[C@@H]2CC[C@@H](OCCO)[C@H](OC)C2)CC(=O)[C@H](C)/C=C(\C)[C@@H](O)[C@@H](OC)C(=O)[C@H](C)C[C@H](C)/C=C/C=C/C=C/1C [everolimus, Everolimus] | – | 2.1 | 1.4 times | –
13 | CCN(CCO)CCCC(C)Nc1ccnc2cc(Cl)ccc12 (centres unmarked) [hydroxychloroquine] | – | 1.9 | 2.5 times | –
14 | CCc1c2c(nc3ccc(OC(=O)N4CCC(N5CCCCC5)CC4)cc13)-c1cc3c(c(=O)n1C2)COC(=O)[C@]3(O)CC [irinotecan, Irinotecan] | – | 2.1 | 1.5 times | –
